Values joined by “and” are separate entries in the source; they are usually repeats but may differ in a detail not shown here. Identical values can stand only once.
Details: Liquid

CCCC(C)O (stereo unspecified) [pentan-2-ol]
Details | vapor or sublimation pressure
323.84 K | 4.16 kPa
324.19 K | 4.41 kPa
324.55 K | 4.39 kPa
325.09 K | 4.67 kPa
326 K | 4.93 kPa
326.22 K | 4.89 kPa
326.99 K | 5.27 kPa
327.15 K | 5.2 kPa
327.64 K | 5.43 kPa
328.19 K | 5.71 kPa
328.23 K | 5.64 kPa
329.05 K | 5.91 kPa
329.11 K | 5.95 kPa and 6.04 kPa
329.66 K | 6.16 kPa
329.9 K | 6.33 kPa
330.86 K | 6.71 kPa
331.78 K | 7.08 kPa
332.29 K | 7.17 kPa
332.55 K | 7.4 kPa
332.61 K | 7.31 kPa
332.92 K | 7.43 kPa
333.15 K | 7.52 kPa
333.37 K | 7.76 kPa
333.88 K | 7.99 kPa
334.61 K | 8.33 kPa
335.52 K | 8.77 kPa
336.34 K | 9.17 kPa
336.37 K | 9.19 kPa
337.2 K | 9.59 kPa
337.85 K | 9.95 kPa
338.74 K | 10.43 kPa
339.44 K | 10.81 kPa
340.1 K | 11.21 kPa
340.82 K | 11.67 kPa
341.54 K | 12.11 kPa
342.2 K | 12.52 kPa
342.83 K | 12.77 kPa
342.88 K | 12.97 kPa
343.15 K | 13 kPa
343.26 K | 13.07 kPa
343.3 K | 13.11 kPa
343.38 K | 13.16 kPa
344.38 K | 13.99 kPa
345.27 K | 14.65 kPa
346.15 K | 15.31 kPa
347.02 K | 15.96 kPa
347.8 K | 16.63 kPa
348.68 K | 17.32 kPa
349.38 K | 17.95 kPa
350.16 K | 18.63 kPa
350.93 K | 19.31 kPa
351.64 K | 19.96 kPa
351.88 K | 20 kPa
352.33 K | 20.43 kPa
352.6 K | 20.65 kPa
352.7 K | 20.72 kPa
352.76 K | 20.83 kPa
352.89 K | 20.96 kPa
353.05 K | 21.12 kPa
353.1 K | 21.19 kPa
353.15 K | 21.2 kPa
353.35 K | 21.4 kPa
354.12 K | 22.16 kPa
354.72 K | 22.83 kPa
355.42 K | 23.55 kPa
355.92 K | 24.12 kPa
356.39 K | 24.44 kPa
356.55 K | 24.84 kPa
357.15 K | 25.47 kPa
357.76 K | 26.2 kPa
357.79 K | 26 kPa
358.23 K | 26.75 kPa
358.83 K | 27.45 kPa
358.88 K | 27.32 kPa
359.01 K | 27.45 kPa
359.53 K | 28.19 kPa
359.91 K | 28.67 kPa
360.35 K | 29.25 kPa
360.5 K | 29.41 kPa
361.12 K | 30.29 kPa
361.45 K | 30.68 kPa
362.1 K | 31.59 kPa
362.5 K | 32.13 kPa
362.93 K | 32.73 kPa
363.38 K | 33.35 kPa
363.85 K | 34.05 kPa
364.28 K | 34.64 kPa
364.84 K | 35.47 kPa
365.13 K | 35.95 kPa
365.62 K | 36.71 kPa
366.01 K | 37.32 kPa
366.4 K | 37.95 kPa
366.86 K | 38.64 kPa
367.24 K | 39.31 kPa
367.65 K | 39.97 kPa
368.06 K | 40.64 kPa
368.44 K | 41.27 kPa
368.85 K | 41.96 kPa
369.31 K | 42.73 kPa
369.58 K | 43.23 kPa
370.05 K | 44.05 kPa
370.46 K | 44.75 kPa
370.74 K | 45.4 kPa
371.07 K | 45.91 kPa
371.47 K | 46.64 kPa
371.82 K | 47.45 kPa
372.15 K | 47.93 kPa
372.5 K | 48.64 kPa
372.91 K | 49.31 kPa
373.16 K | 49.87 kPa
373.57 K | 50.71 kPa
373.88 K | 51.25 kPa
374.25 K | 52.03 kPa
374.47 K | 52.55 kPa
374.85 K | 53.37 kPa
375.14 K | 53.95 kPa
375.44 K | 54.67 kPa
375.83 K | 55.37 kPa
376.13 K | 56.01 kPa
376.47 K | 56.71 kPa
376.74 K | 57.36 kPa
377.07 K | 58 kPa
377.32 K | 58.64 kPa
377.65 K | 59.32 kPa
377.91 K | 59.97 kPa
378.22 K | 60.67 kPa
378.56 K | 61.4 kPa
378.81 K | 61.97 kPa
379.04 K | 62.61 kPa
379.39 K | 63.39 kPa
379.6 K | 63.91 kPa
379.89 K | 64.6 kPa
380.13 K | 65.2 kPa
380.47 K | 65.99 kPa
380.7 K | 66.63 kPa
381 K | 67.31 kPa
381.26 K | 68.01 kPa
381.53 K | 68.67 kPa
381.76 K | 69.31 kPa
382.08 K | 70.21 kPa
382.28 K | 70.63 kPa
382.55 K | 71.31 kPa
382.78 K | 71.95 kPa
383.05 K | 72.65 kPa
383.29 K | 73.35 kPa
383.53 K | 73.93 kPa
383.76 K | 74.63 kPa
384.09 K | 75.48 kPa
384.26 K | 75.99 kPa
384.5 K | 76.63 kPa
384.74 K | 77.35 kPa
384.95 K | 77.93 kPa
385.42 K | 79.27 kPa
385.65 K | 80 kPa
385.87 K | 80.56 kPa
386.24 K | 81.79 kPa
386.32 K | 81.88 kPa
386.54 K | 82.68 kPa
386.76 K | 83.23 kPa
386.96 K | 84.05 kPa
387.37 K | 85.27 kPa
387.8 K | 86.61 kPa
388.23 K | 88 kPa
388.66 K | 89.39 kPa
389.07 K | 90.69 kPa
389.51 K | 92.16 kPa
389.9 K | 93.44 kPa
390.26 K | 94.61 kPa
390.65 K | 95.95 kPa
391.05 K | 97.27 kPa
391.46 K | 98.71 kPa

C1CCCCC1 [cyclohexane]
Details | vapor or sublimation pressure
295.42 K | 11.15 kPa
295.45 K | 11.16 kPa
295.46 K | 11.17 kPa
295.72 K | 11.33 kPa
295.75 K | 11.35 kPa
296.22 K | 11.63 kPa
297.08 K | 12.15 kPa
297.13 K | 12.16 kPa and 12.17 kPa
297.86 K | 12.61 kPa
297.99 K | 12.71 kPa
298.83 K | 13.23 kPa
299.75 K | 13.8 kPa
299.77 K | 13.81 kPa
300.85 K | 14.52 kPa
302.63 K | 15.71 kPa
303.02 K | 16.03 kPa
303.15 K | 16.11 kPa
304.38 K | 17.04 kPa
304.4 K | 17.05 kPa
304.42 K | 17.07 kPa
306.05 K | 18.33 kPa
306.4 K | 18.6 kPa
307.45 K | 19.4 kPa
308.06 K | 19.91 kPa
309.5 K | 21.12 kPa
310.98 K | 22.47 kPa
312.48 K | 23.89 kPa
313.15 K | 24.56 kPa
313.84 K | 25.25 kPa
315.01 K | 26.47 kPa
315.26 K | 26.67 kPa
316.32 K | 27.88 kPa
317.51 K | 29.23 kPa
318.31 K | 30.09 kPa
318.67 K | 30.56 kPa
319.81 K | 31.93 kPa
320.87 K | 33.27 kPa
321.91 K | 34.59 kPa
321.99 K | 34.69 kPa
322.94 K | 35.95 kPa
323.15 K | 36.27 kPa
323.44 K | 36.59 kPa
323.88 K | 37.23 kPa
323.95 K | 37.33 kPa
324.83 K | 38.56 kPa
326.12 K | 40.45 kPa
326.68 K | 41.25 kPa
327.61 K | 42.68 kPa
328.43 K | 43.97 kPa
329.32 K | 45.4 kPa
329.35 K | 45.43 kPa
330.05 K | 46.59 kPa
330.94 K | 48.07 kPa
331.68 K | 49.32 kPa
332.02 K | 49.89 kPa
332.41 K | 50.6 kPa
333.11 K | 51.87 kPa
333.15 K | 51.92 kPa
333.83 K | 53.15 kPa
333.86 K | 53.19 kPa
334.53 K | 54.47 kPa
335.26 K | 55.85 kPa
335.64 K | 56.56 kPa
335.95 K | 57.19 kPa
336.7 K | 58.63 kPa
337.36 K | 59.96 kPa
338.06 K | 61.39 kPa and 61.4 kPa
338.65 K | 62.63 kPa
338.67 K | 62.64 kPa
339.29 K | 63.95 kPa
339.92 K | 65.29 kPa
340.54 K | 66.63 kPa
341.12 K | 67.95 kPa
341.72 K | 69.29 kPa
342.32 K | 70.65 kPa
342.88 K | 71.93 kPa
343.15 K | 72.6 kPa
343.43 K | 73.25 kPa
344.05 K | 74.73 kPa
344.55 K | 75.96 kPa
345.08 K | 77.27 kPa
345.69 K | 78.76 kPa
346.18 K | 80 kPa
346.67 K | 81.25 kPa
347.18 K | 82.56 kPa and 82.57 kPa
347.69 K | 83.89 kPa
348.19 K | 85.23 kPa
348.65 K | 86.49 kPa
349.19 K | 87.93 kPa
349.72 K | 89.43 kPa
350.18 K | 90.64 kPa
350.25 K | 90.87 kPa
350.67 K | 92.07 kPa
351.1 K | 93.27 kPa
351.57 K | 94.63 kPa
352.01 K | 95.92 kPa
352.45 K | 97.23 kPa
352.9 K | 98.57 kPa
353.15 K | 99.31 kPa
353.36 K | 99.95 kPa

— the NIST ThermoML archive (doi:10.1021/je900050z)
